Consider 6 compounds from US7772258B2, “Agent for treatment of allergic eye disease” (Nikken Chemicals Co., Ltd., priority 2001, dated 2010).

The test system of the assay is Allergic Conjunctivitis Model. As to the kind of experiment: Alleviating action for allergic conjunctivitis model (Itch-Scratch response after OA challenge). To be noted: OA-sensitized Wistar rats, scratching counted over 20 minutes after OA. Format: in vivo. How it is done:
or the experiment, Wistar rats (CLEA Japan) were used. The rats were sensitized by intraperitoneal administration of ovalbumin (OA, made by Sigma) in an amount of 100 μg and 10 mg of aluminum hydroxide (Alum, made by Pierce Co.) suspended in 1 mL of physiological saline. Allergic conjunctivitis was induced using rats after 3 weeks from the date of sensitization by dropping into the eyes of 10 μg OA solution prepared by physiological saline to a concentration of 30 mg/mL. The medicine was suspended at a concentration of 1.0 w/v % in physiological saline and dropped into the eyes 10 minutes before OA challenge to induce conjunctivitis (as a positive control drug, diphenhydramine suspended in a concentration of 0.3 w/v % in physiological saline was dropped in the eyes 10 minutes before OA challenge to induce conjunctivitis). For the effect of the compound, the number of times of the action of using the hind legs to scratch the eye area (Itch-Scratch response; considered to be an indicator of itchiness) observed in the 20-minute period after dropping the OA was counted and used to find the rate of inhibition of itchiness by the following formula: Control group: presensitized rats in whose eyes physiological saline is dropped 10 minutes before using OA to induce conjunctivitis Untreated group: unsensitized rats in whose eyes physiological saline is dropped. Calculation Formula: Inhibition rate(%)=100−(test substance group−untreated group/(control group−untreated group)×100

Where [1] appears, read: test substance 1.0 w/v % suspension in physiological saline dropped into the eyes 10 minutes before OA challenge.

In the case of `COc1ccc(NC2=C(C)C(=O)CC2)cc1O[C@@H]1C[C@H]2CC[C@@H]1C2` (racemic) [Compound 2, 3-[3-[(1RS,2RS,4SR)-bicyclo[2.2.1]hept-2-yloxy]-4-methoxyanilino]-2-methyl-2-cyclopenten-1-one], the “Inhibition rate (%) of Itch-Scratch response” value (“Inhibition rate (%)” for short) under setting [1] stood at 62.9%.

As to `CCC1=C(Nc2ccc(OC)c(O[C@@H]3C[C@H]4CC[C@@H]3C4)c2)CCC1=O` (racemic) [Compound 3, 3-[3-[(1RS,2RS,4SR)-bicyclo[2.2.1]hept-2-yloxy]-4-methoxyanilino]-2-ethyl-2-cyclopenten-1-one], the “Inhibition rate (%)” value under setting [1] is given as 63.5%.

Turning to `COc1ccc(N(Cc2ccc3ccccc3c2)C2=CC(=O)CC2)cc1OC1CCCC1` [Compound 1, 3-[3-cyclopentyloxy-4-methoxy-N-(2-naphthylmethyl)anilino]-2-cyclopenten-1-one], the “Inhibition rate (%)” value under setting [1] stood at 82.7%.

Turning to `COc1ccc(NC2=C(C)C(=O)CC2)cc1O[C@@H]1C[C@H]2CC[C@@H]1C2` [Compound 4, (−)-3-[3-[(1R,2R,4S)-bicyclo[2.2.1]hept-2-yloxy]-4-methoxyanilino]-2-methyl-2-cyclopenten-1-one], the “Inhibition rate (%)” value under setting [1] was 68.6%.

In the case of `COc1ccc(NC2=C(C)C(=O)CC2)cc1O[C@H]1C[C@@H]2CC[C@H]1C2` [Compound 5, (+)-3-[3-[(1S,2S,4R)-bicyclo[2.2.1]hept-2-yloxy]-4-methoxyanilino]-2-methyl-2-cyclopenten-1-one], under setting [1], the “Inhibition rate (%)” value is 97.1%.

Consider `CN(C)CCOC(c1ccccc1)c1ccccc1` [Diphenhydramine, diphenhydramine, reference compound], for which the “Inhibition rate (%)” value (positive control 0.3 w/v % suspension in physiological saline dropped into the eyes 10 minutes before OA challenge) was 64.6%.
